Values of other authors, collected in patent US20250178999A1, “ONE STEP SYNTHESIS OF 1-TETRALONE COMPOUNDS AND USES THEREOF IN THE PREPARATION OF (+)-TETRALONE ABSCISIC ACID (ABA)” (University of Saskatchewan, priority 2022, published 2025).
Read-outs that look alike come from different tables or passages of the source.

Legend:
[1] = tested on: Arabidopsis; details: for IC50: Vaidya et al 2019, read-out: IC50 in germination of Arabidopsis
[2] = tested on: ABA receptors; details: Arabidopsis receptors; Vaidya et al 2019
[3] = tested on: ABA receptors; details: wheat receptors; Vaidya et al 2019
[4] = tested on: corn cell; details: Nyangulu et al 2006
[5] = tested on: lettuce; details: Han et al 2015
[6] = tested on: rice seedling; details: Han et al 2015
[7] = tested on: corn cell suspension system; details: Nyangulu et al 2006
[8] = Nyangulu et al 2006

SMILES	IC50 [1]	relative potency of 7 and (+)-5 by receptor subgroup [2]	relative potency of 7 and (+)-5 by receptor subgroup [3]	other results
N#Cc1c(C2CC2)cc(CC(=O)NC2(C(=O)O)CCCCC2)cc1C1CC1 [Compound 7, opabactin, reference compound]	62 nM	more the active in subgroup III	more the active in subgroup III	–
CC(=C/C(=O)O)/C=C/[C@@]1(O)c2ccccc2C(=O)CC1(C)C [(+)-5, (2Z,4E)-5-((S)-1-hydroxy-2,2-dimethyl-4-oxo-1,2,3,4-tetrahydronaphthalen-1-yl)-3-methylpenta-2,4-dienoic acid]	194 nM	more potent in subgroup II	more potent in subgroup II	activity in seed germination inhibition assay in Arabidopsis compared to ABA ([1]; Nyangulu et al 2006): higher activity than ABA; activity in corn cell growth inhibition assay compared to ABA [4]: higher activity than ABA
CC(=C/C(=O)O)/C=C/C1(O)c2ccccc2C(=O)CC1(C)C (racemic) [(±)-5]	–	–	–	activity in seed germination assay in arabidopsis compared to racemic ABA ([1]; Han et al 2015): higher activity than racemic ABA; activity in seed germination assay in lettuce compared to racemic ABA [5]: higher activity than racemic ABA; activity in rice seedling growth inhibition assay compared to racemic ABA [6]: higher activity than racemic ABA
CC1=CC(=O)CC(C)(C)[C@@]1(O)/C=C/C(C)=C\C(=O)O [(+)-1, (2Z,4E)-5-[(1S)-1-hydroxy-2,6,6-trimethyl-4-oxocyclohex-2-en-1-yl]-3-methylpenta-2,4-dienoic acid, reference compound]	601 nM	–	–	–
CC(=C/C(=O)O)/C=C/[C@@]1(O)c2ccccc2C(=O)C[C@]1(C)CO [Compound 8]	–	–	–	metabolic fate in corn cell suspension system [7]: not converted to a phaseic acid-like compound; biological activity [8]: retain biological activity
